Where a name gives a salt, the structure may show the parent alone.
Columns and labels:
[1] = target: T1, PDE III (cAMP-specific PDE which is inhibited by cGMP) (Canis lupus familiaris, UniProt A0A8I3NYE0); test: Inhibitory activity on PDE III purified from canine tracheal smooth muscle (Test Example 1); format: biochemical; details: 1.0 μM [3H]cAMP substrate, 10 μM rolipram added; for inhibition at 1 µM: read-out: PDE Inhibitory activity, PDE III, Percent inhibition
T1 construct: purified from canine tracheal smooth muscle; from tissue; host or cells: canine tracheal smooth muscle
T1 sequence (A0A8I3NYE0 1-1135): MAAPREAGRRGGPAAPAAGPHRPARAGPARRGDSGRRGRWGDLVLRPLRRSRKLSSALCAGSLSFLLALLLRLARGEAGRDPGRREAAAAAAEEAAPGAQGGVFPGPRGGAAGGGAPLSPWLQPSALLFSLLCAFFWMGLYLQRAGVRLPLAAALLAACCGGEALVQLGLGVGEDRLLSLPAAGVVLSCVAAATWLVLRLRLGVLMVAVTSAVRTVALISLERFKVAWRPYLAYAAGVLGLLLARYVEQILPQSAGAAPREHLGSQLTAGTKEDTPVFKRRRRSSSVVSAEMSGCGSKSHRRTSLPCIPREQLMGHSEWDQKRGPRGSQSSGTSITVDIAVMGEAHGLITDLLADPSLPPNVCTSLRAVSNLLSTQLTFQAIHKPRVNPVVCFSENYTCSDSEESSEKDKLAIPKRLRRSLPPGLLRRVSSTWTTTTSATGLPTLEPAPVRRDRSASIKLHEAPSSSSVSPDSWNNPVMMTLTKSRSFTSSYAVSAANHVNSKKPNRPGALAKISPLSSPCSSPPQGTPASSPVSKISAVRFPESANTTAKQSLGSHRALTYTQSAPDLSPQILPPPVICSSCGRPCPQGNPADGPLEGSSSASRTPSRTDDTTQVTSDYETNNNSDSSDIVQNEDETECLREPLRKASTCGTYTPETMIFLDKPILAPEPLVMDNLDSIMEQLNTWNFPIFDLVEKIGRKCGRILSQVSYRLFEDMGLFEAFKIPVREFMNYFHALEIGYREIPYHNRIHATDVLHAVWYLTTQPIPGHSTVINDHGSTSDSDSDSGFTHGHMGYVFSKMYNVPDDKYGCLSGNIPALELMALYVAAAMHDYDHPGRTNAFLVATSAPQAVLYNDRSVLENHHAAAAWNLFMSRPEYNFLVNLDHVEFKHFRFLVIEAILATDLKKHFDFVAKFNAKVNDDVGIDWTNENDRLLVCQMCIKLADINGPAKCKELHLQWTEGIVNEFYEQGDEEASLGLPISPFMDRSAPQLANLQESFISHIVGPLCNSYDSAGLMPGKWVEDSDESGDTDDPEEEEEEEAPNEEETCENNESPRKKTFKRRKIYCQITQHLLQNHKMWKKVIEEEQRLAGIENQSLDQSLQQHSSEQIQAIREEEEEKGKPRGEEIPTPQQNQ
Experimental: (§1) The reaction was started by addition of an enzyme and stopped by addition of hydrochloric acid after 10 to 30 minutes at 30° C. Thereafter, sodium hydroxide was added to neutralize and 5'-AMP or 5'-GMP was converted into adenosine or guanosine using 5'-nucleotidase. The reaction solution was subjected to DEAE-Sephadex A-25 column. [^3 H]Adenosine [^3 H]guanosine was eluted with distilled water and the radioactivity was measured with a liquid scintillation counter.

[2] = target: T2, PDE V (cGMP-specific PDE) (Canis lupus familiaris, UniProt O77746); test: Inhibitory activity on PDE V purified from canine tracheal smooth muscle (Test Example 1); format: biochemical; details: 1.0 μM [3H]cGMP substrate; for inhibition at 0.001 µM: 1 nM, read-out: PDE Inhibitory activity, PDE V, Percent inhibition
T2 construct: purified from canine tracheal smooth muscle; from tissue; host or cells: canine tracheal smooth muscle
Experimental: The inhibitory activity on PDE derived from canine tracheal smooth muscle
The measurement of the PDE I activity was carried out using 1.0 μM [^3 H]cAMP as a substrate in the presence of 0.4 mM CaCl2 and 20 units/ml calmodulin. The measurement of the PDE II activity was carried out using 1.0 μM [^3 H]cAMP as a substrate in the presence of 10 μM cGMP. The measurement of the PDE III, IV and V activity was carried out using, as a substrate, 1.0 μM [^3 H]cAMP, 1.0 μM [^3 H]cAMP and 1.0 μM [3H]cGMP, respectively. […] Respective reactions were carried out in a buffer having the following composition:
50 mM N,N-bis(2-hydroxyethyl)-2-aminoethanesulfonic acid (pH 7.2), 1 mM MgCl2, 0.1 mg/ml soybean trypsin inhibitor.
as §1

[3] = Hypotensive effects in guinea pigs (Test Example 2); format: in vivo, guinea pig; details: anesthetized guinea pigs, in DMSO
Experimental: Hypotensive effects in guinea pigs.
After a guinea pig, anesthetized with pentobarbital, was fixed in the supine position, a cannula was inserted into trachea and guinea pig was artificially ventilated under the conditions of a tidal volume of […] and 60 breathes/min. The carotid artery and the jugular vein were cannulated for measuring arterial blood pressure and administering drugs, respectively. Drugs were dissolved in DMSO (50 μl) and administered intravenously using the above cannula.
The maximum percent values from the pre-drug level (100%) in mean blood pressure (mBP) were obtained.

[4] = system: PDE II (PDE which is activated by cGMP); test: Inhibitory activity on PDE II purified from canine tracheal smooth muscle (Test Example 1); format: biochemical; details: 10 μM; 1.0 μM [3H]cAMP substrate, 10 μM cGMP
Experimental: as §1

[5] = system: PDE IV (cAMP-specific PDE); test: Inhibitory activity on PDE IV purified from canine tracheal smooth muscle (Test Example 1); format: biochemical; details: 1.0 μM [3H]cAMP substrate, 25 μM cGMP added
Experimental: as §1

[6] = system: PDE I (PDE which is activated by calmodulin); test: Inhibitory activity on PDE I purified from canine tracheal smooth muscle (Test Example 1); format: biochemical; details: 10 μM; 1.0 μM [3H]cAMP substrate, CaCl2 and calmodulin
Experimental: as §1

SMILES | inhibition at 1 µM [1] | inhibition at 0.001 µM [2] | also measured
CCn1c(=S)[nH]c2cc3c(NCc4cccc(C(F)(F)F)c4)ncnc3cc21 [Compound 54, 3-ethyl-8-(3-trifluoromethylbenzylamino)-2,3-dihydro-1H-imidazo[4,5-g]quinazoline-2-thione hydrochloride] | 32% | 96% | 
CCn1c(=O)[nH]c2cc3c(NCc4cccc(OC)c4)ncnc3cc21 [Compound 15, 3-ethyl-8-(3-methoxybenzylamino)-2,3-dihydro-1H-imidazo[4,5-g]quinazoline-2-one hydrochloride] | 50% | 67% | 
CCn1c(=S)[nH]c2cc3c(NCc4ccccc4)ncnc3cc21 [Compound 39, 8-benzylamino-3-ethyl-2,3-dihydro-1H-imidazo[4,5-g]quinazoline-2-thione] |  |  | maximum percent values from the pre-drug level (100%) in mean blood pressure (mBP) ([3]; 1 μg/kg i.v.): 100.20%; maximum percent values from the pre-drug level (100%) in mean blood pressure (mBP) ([3]; 3 μg/kg i.v.): 80.00%; maximum percent values from the pre-drug level (100%) in mean blood pressure (mBP) ([3]; 10 μg/kg i.v.): 72.30%; maximum percent values from the pre-drug level (100%) in mean blood pressure (mBP) ([3]; 30 μg/kg i.v.): 51.20%
CCCn1c(=S)[nH]c2cc3c(NCc4ccccc4)ncnc3cc21 [Compound 42, 8-benzylamino-3-(n-propyl)-2,3-dihydro-1H-imidazo[4,5-g]quinazoline-2-thione] | 27% | 94% | 
CCn1c(=O)[nH]c2cc3c(NCC4CCCO4)ncnc3cc21 (stereo not drawn) [Compound 30, 3-ethyl-8-(2,3,4,5-tetrahydro-2-furylmethylamino)^- 2,3-dihydro-1H-imidazo[4,5-g]quinazoline-2-one hydrochloride] |  |  | PDE Inhibitory activity, PDE II, Percent inhibition [4]: 61%; IC50 [5]: > 10 µM; IC50 [1]: 1.1 µM; PDE Inhibitory activity, PDE I, Percent inhibition [6]: 58%; IC50 [2]: 0.00018 µM
CCn1c(=S)[nH]c2cc3c(NCc4cccc(OC)c4)ncnc3cc21 [Compound 51, 3-ethyl-8-(3-methoxybenzylamino)-2,3-dihydro-1H-imidazo[4,5-g]quinazoline-3-thione hydrochloride] | 48% | 97% | 
CCn1c(=S)[nH]c2cc3c(NCc4ccncc4)ncnc3cc21.Cl.Cl [Compound 47, 3-ethyl-8-(4-pyridylmethylamino)-2,3-dihydro-1H-imidazo[4,5-g]quinazoline-2-thione dihydrochloride] | 60% | 91% | PDE Inhibitory activity, PDE II, Percent inhibition [4]: 19%; PDE Inhibitory activity, PDE IV, Percent inhibition ([5]; 10 μM): 20%; PDE Inhibitory activity, PDE I, Percent inhibition [6]: 12%
CCn1c(=O)[nH]c2cc3c(NCc4ccc(F)c(F)c4)ncnc3cc21 [Compound 20, 8-(3,4-difluorobenzylamino)-3-ethyl-2,3-dihydro-1H-imidazo[4,5-g]quinazoline-2-one hydrochloride] | 47% | 69% | 
